Experimental data published in ChEMBL document CHEMBL5257077, “d-chiro-Inositol Derivatives with Multidrug Resistance Reversal Activities from the Fruits of Chisocheton siamensis” (J Nat Prod, 2023).

Assay: Reversal of multidrug resistance in human MCF7-DOX cells measured for 48 hrs by MTT assay
Assay type: functional, cell-based

SMILES	IC50 [µM]
C/C=C(\C)C(=O)O[C@H]1[C@@H](OC(C)=O)[C@H](OC(C)=O)[C@H](OC(=O)/C(C)=C/C)[C@@H](OC(=O)/C(=C/C)CO)[C@@H]1OC(=O)/C(=C/C)CO	3.4
C/C=C(\C)C(=O)O[C@H]1[C@H](OC(=O)/C(C)=C/C)[C@@H](OC(=O)/C(C)=C/C)[C@@H](O)[C@H](O)[C@@H]1OC(=O)/C(C)=C/C	4
C/C=C(\C)C(=O)O[C@@H]1[C@H](O)[C@@H](OC(=O)/C(C)=C/C)[C@H](OC(=O)/C(C)=C/C)[C@@H](OC(=O)/C(C)=C/C)[C@H]1O	6.5
COc1cccc2c1C(=O)c1c(O)c3c(c(O)c1C2=O)C[C@@](O)(C(=O)CO)C[C@@H]3O[C@H]1C[C@H](N)[C@H](O)[C@H](C)O1 [DOXORUBICIN]	22.4
COc1ccc(CCN(C)CCCC(C#N)(c2ccc(OC)c(OC)c2)C(C)C)cc1OC (stereo not given) [VERAPAMIL]	2.1
